Here are results for eleven molecules from ChEMBL document CHEMBL1201862, “PubChem BioAssay data set” (2004).

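Exposure lasted 48 hours, with cells grown in 96-well plates and compounds tested at five concentrations. GI50 = concentration required for 50% inhibition of growth.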 Calls of active or inactive are those of the source. Cut-off read from the data, not from the text of the source: active = GI50 up to about 1.1 µM and inactive = higher. Bounds are passed on as bounds.

Some test systems named below: 786-0; Hs-578T; LOX IMVI; MDA-MB-231; MDA-N; NCI-H226; NCI-H460; OVCAR-5; OVCAR-8; RPMI-8226; SF-268; SF-539; SK-MEL-5; SK-OV-3; SNB-19; SNB-75; TK-10; UACC-257; UACC-62; HCC 2998.
Assay in all cases: NCI anticancer screen, dose series, 48 h

As for `O=C(O)CCNCC(=O)O`, the GI50 in the test on 786-0, with Hs-578T, in the test with LOX IMVI, in the test on MDA-MB-231, with MDA-N and in the test on NCI-H226 was > 100 µM (inactive) throughout. In addition, the GI50 in the test on NCI-H460, in the test with OVCAR-5, in the test with OVCAR-8, in the test on RPMI-8226, in the test on SF-268 and in the test on SF-539 was > 100 µM (inactive) throughout. In addition, the GI50 in the test on SK-MEL-5, in the test with SK-OV-3, in the test on SNB-19, with SNB-75, in the test with TK-10 and in the test with UACC-257 was > 100 µM (inactive) in each case. Also, the GI50 with UACC-62 is > 100 µM (inactive).
Turning to `Cc1cc(C)c(S(=O)(=O)N2CCCN(S(=O)(=O)c3c(C)cc(C)cc3C)OCCCO2)c(C)c1`, the GI50 in the test on 786-0, with Hs-578T, in the test on LOX IMVI, in the test on MDA-MB-231, in the test on MDA-N and in the test on NCI-H226 was > 100 µM (inactive) each time. Further, the GI50 in the test with NCI-H460, with OVCAR-5, in the test on OVCAR-8, with SF-268, in the test with SK-MEL-5 and with SK-OV-3 was > 100 µM (inactive) in each case. In addition, the GI50 in the test on SNB-19 is > 100 µM (inactive); in the test with SNB-75, 57.1 µM (inactive); in the test with TK-10 it was > 100 µM (inactive); in the test with UACC-257, 45.9 µM (inactive); with UACC-62 it was > 100 µM (inactive).
For the molecule `COc1ccc(C[N+]23C(CC[C@H]2c2ccccc2)CC[C@H]3c2ccccc2)cc1` (stereo not given in full), the GI50 with 786-0 was 39.4 µM (inactive); in the test with Hs-578T, 27.7 µM (inactive); in the test with LOX IMVI, 16.6 µM (inactive); in the test with MDA-MB-231, 28.2 µM (inactive); in the test on MDA-N it was 13.2 µM (inactive); with NCI-H226 it was 14.1 µM (inactive). For the same molecule, the GI50 with OVCAR-5 was 32.3 µM (inactive); in the test with OVCAR-8, 22.9 µM (inactive); in the test on RPMI-8226, 2.8 µM (inactive); with SF-268, 30.3 µM (inactive); in the test with SK-MEL-5, 4.43 µM (inactive); in the test with SK-OV-3 it was 29.5 µM (inactive). Further, the GI50 in the test on SNB-19 is 27.2 µM (inactive); in the test on SNB-75, 18.3 µM (inactive); in the test with TK-10, 44.9 µM (inactive); with UACC-257, 5.22 µM (inactive).
With `CCN1CCN(c2nc3ccccc3nc2C(=O)c2ccc(OC)cc2)CC1`, the GI50 in the test on 786-0 was 19.4 µM (inactive); in the test with HCC 2998 it was > 100 µM (inactive); in the test with Hs-578T it was 38.6 µM (inactive); in the test with LOX IMVI, 24.8 µM (inactive); in the test on MDA-N it was 32.1 µM (inactive); with NCI-H460 it was 21.5 µM (inactive). The GI50 was 56.8 µM (inactive) in the test on OVCAR-5; 60.7 µM (inactive) with OVCAR-8; 7.19 µM (inactive) in the test with RPMI-8226; 29.4 µM (inactive) with SF-268; 26.4 µM (inactive) in the test with SF-539; 37.2 µM (inactive) in the test on SK-MEL-5. For the same molecule, the GI50 was > 100 µM (inactive) with SK-OV-3; 90.2 µM (inactive) in the test on SNB-19; 37.2 µM (inactive) in the test on SNB-75; 22.6 µM (inactive) with TK-10; 16.5 µM (inactive) with UACC-257; 20.6 µM (inactive) in the test on UACC-62.
Consider `COc1ccc(C2NC(=O)Nc3c2c(=O)oc2c3ccc3ccccc32)cc1` (stereo not given), for which the GI50 in the test with 786-0 was 67 µM (inactive); with Hs-578T it was 41.4 µM (inactive); in the test with LOX IMVI, 74.6 µM (inactive); in the test with MDA-MB-231 it was 54 µM (inactive); in the test with MDA-N, 59.2 µM (inactive); in the test on NCI-H226 it was 23.4 µM (inactive). Further, the GI50 with NCI-H460 is 50.8 µM (inactive); in the test on OVCAR-5, > 100 µM (inactive); with OVCAR-8 it was 66.8 µM (inactive); in the test with RPMI-8226, 43.3 µM (inactive); in the test on SF-268, 56.4 µM (inactive); in the test with SF-539 it was 83 µM (inactive). For the same molecule, the GI50 in the test on SK-MEL-5 is 71.6 µM (inactive); with SK-OV-3 it was > 100 µM (inactive); in the test with SNB-19 it was 33.2 µM (inactive); in the test with SNB-75, 22.3 µM (inactive); with TK-10, 74.3 µM (inactive); in the test with UACC-257, > 100 µM (inactive). Moreover, the GI50 with UACC-62 is 29.6 µM (inactive).
As to `COc1ccc(/C=C2\OC(=O)C(Cl)=C2c2ccc(OC)c(Cl)c2)cc1`, the GI50 in the test with 786-0 was 15.4 µM (inactive); with HCC 2998, 35.3 µM (inactive); in the test on Hs-578T it was 20.9 µM (inactive); in the test on LOX IMVI, 32.1 µM (inactive); in the test on MDA-N, 17.7 µM (inactive); in the test on NCI-H460 it was 22.6 µM (inactive). Further, the GI50 in the test on OVCAR-5 was 24.6 µM (inactive); in the test with OVCAR-8, 21.1 µM (inactive); in the test on RPMI-8226, 24.9 µM (inactive); in the test on SF-268, 17.3 µM (inactive); with SF-539 it was 15.2 µM (inactive); in the test with SK-MEL-5, 17.3 µM (inactive). The GI50 in the test on SK-OV-3 was 33.9 µM (inactive); in the test on SNB-19, 34.1 µM (inactive); with SNB-75, 19.7 µM (inactive); with TK-10 it was 21.7 µM (inactive); in the test on UACC-257 it was 34.7 µM (inactive); in the test on UACC-62, 26.5 µM (inactive).
For `COc1cccc(N2C(=O)CS(=O)(=O)C2c2cccc(Oc3ccccc3)c2)c1` (stereo not given), the GI50 was 16.9 µM (inactive) in the test with 786-0; 21.8 µM (inactive) in the test with Hs-578T; 17.1 µM (inactive) in the test on LOX IMVI; 30.4 µM (inactive) in the test with MDA-MB-231; 2.38 µM (inactive) with MDA-N; 19.1 µM (inactive) with NCI-H226. For the same molecule, the GI50 with NCI-H460 was 13.6 µM (inactive); in the test on OVCAR-5, 34 µM (inactive); with OVCAR-8, 21.6 µM (inactive); with SF-268 it was 24.4 µM (inactive); with SF-539, 15.1 µM (inactive); with SK-MEL-5, 7.11 µM (inactive). Besides, the GI50 was 38 µM (inactive) in the test on SK-OV-3; 27.1 µM (inactive) in the test on SNB-19; 15.6 µM (inactive) in the test with SNB-75; 16.5 µM (inactive) in the test on TK-10; 15.3 µM (inactive) with UACC-257; 6.1 µM (inactive) in the test with UACC-62.
As for `O=S(=O)(Cc1ccccc1)c1nnc(S(=O)(=O)c2ccc(Cl)cc2)s1`, the GI50 is 23.6 µM (inactive) with 786-0; 18.1 µM (inactive) in the test with Hs-578T; 34.8 µM (inactive) in the test with MDA-MB-231; 18.1 µM (inactive) with MDA-N; 21.2 µM (inactive) in the test on NCI-H460; 24.8 µM (inactive) in the test on OVCAR-5. In addition, the GI50 with OVCAR-8 is 19 µM (inactive); in the test with RPMI-8226 it was 15.9 µM (inactive); in the test with SF-268, 19.5 µM (inactive); in the test with SF-539, 18.5 µM (inactive); in the test with SK-MEL-5, 17.9 µM (inactive); in the test with SK-OV-3, 23.3 µM (inactive). For the same molecule, the GI50 is 19.6 µM (inactive) with SNB-19; 16.6 µM (inactive) in the test on SNB-75; 12.2 µM (inactive) with TK-10; 19.9 µM (inactive) in the test with UACC-257; 27 µM (inactive) with UACC-62.
On to `Cc1cccc(Cl)c1NCC(O)CN1CCN(C)CC1` (stereo not given), for which the GI50 with 786-0, in the test with HCC 2998, with Hs-578T, with LOX IMVI, in the test on MDA-MB-231 and in the test with MDA-N was > 100 µM (inactive) in each case. In addition, the GI50 in the test with NCI-H226, with NCI-H460, in the test with OVCAR-5, in the test on OVCAR-8, in the test with SF-268 and with SK-MEL-5 was > 100 µM (inactive) in each case. Moreover, the GI50 with SNB-19, in the test on SNB-75, in the test with TK-10, in the test on UACC-257 and with UACC-62 was > 100 µM (inactive) throughout.
With `Nc1nc(N)c2nc(CNc3ccc(C(=O)NC(CCCCNC(=O)c4ccccc4C(=O)O)C(=O)O)cc3)cnc2n1` (stereo not given), the GI50 was 0.01 µM (active) in the test on 786-0; 0.01 µM (active) with HCC 2998; > 100 µM (inactive) in the test with Hs-578T; 0.01 µM (active) with LOX IMVI; 0.01 µM (active) in the test with MDA-N; > 100 µM (inactive) in the test on NCI-H226. For the same molecule, the GI50 in the test with NCI-H460 is 0.01 µM (active); in the test with OVCAR-5, > 85.3 µM (inactive); in the test with OVCAR-8 it was 0.01 µM (active); with RPMI-8226 it was 0.01 µM (active); in the test on SF-268 it was 0.01 µM (active); in the test on SF-539, < 0.0133 µM (active). Further, the GI50 was < 0.0119 µM (active) in the test on SK-MEL-5; > 100 µM (inactive) in the test on SK-OV-3; < 0.0158 µM (active) in the test with SNB-19; 0.173 µM (active) in the test on TK-10; 0.01 µM (active) with UACC-62.
In the case of `COc1cccc2c1[C@H](OC)[C@]13O[C@@]1(C2=O)[C@H](O)[C@H](C)[C@@](O)(C(=O)[C@@H]1O[C@H]1C)[C@@H]3O`, the GI50 in the test on 786-0 is 0.264 µM (active); with Hs-578T it was 0.235 µM (active); in the test with LOX IMVI, 0.237 µM (active); with MDA-MB-231, 0.202 µM (active); with MDA-N, 0.265 µM (active); with NCI-H226, 0.335 µM (active). Also, the GI50 with OVCAR-8 was 0.217 µM (active); with RPMI-8226, 0.172 µM (active); in the test with SF-268 it was 0.246 µM (active); in the test with SK-MEL-5, 0.172 µM (active); in the test with SK-OV-3, 0.21 µM (active); with TK-10 it was 0.318 µM (active). Also, the GI50 in the test with UACC-257 was 0.225 µM (active); with UACC-62, 0.298 µM (active).
